# In patent US11267814B2, “Compounds for bone growth” (OsteoQC Inc., priority 2013, dated 2022):
# What was measured:
# MC3T3 osteoblast cells = assay: Osteocalcin (OCN) secretion, bone formation marker, ELISA; type: cell-based, mouse; conditions: for IC100: Mus musculus
# Method: Bone formation can also be assayed in vitro or in vivo using a serum marker for bone formation, osteocalcin (OCN), available from Biomedical Tecnhnologies, Inc. (Stoughton, Mass.). Following the manufacturer's protocol for the mouse osteocalcin EIA kit (described at the website www.btiinc.com/page/cata2.html#mouse_osteocalcin), bone formation in MC3T3 osteoblast cells was assayed by measuring the concentration of OCN.
# [1] = system: MC3T3-E1 (mouse calvarial) osteoblast cells; assay: Rescue of sclerostin inhibition of mineralization (total calcium); type: cell-based; conditions: calcium concentration; for IC100: Mus musculus, MC3T3-E1, read-out: Sclerostin Inhibition of Mineralization, improvement over sclerostin alone.
# Method: Mineralization (crystalline calcium phosphate formation) represents an in vitro model of bone formation. […] Following the protocol described in Li et al., Compounds were assayed for their ability to rescue the inhibition of mineralization by sclerostin in MC3T3 osteoblast cells.
# sclerostin = molecular target: T1, sclerostin (Homo sapiens, UniProt Q9BQB4); assay: Modulation of sclerostin/Wnt activity (sclerostin inhibition assay): restoring Wnt3a signaling in the presence of sclerostin; type: cell-based; conditions: for Sclerostin Inhibition Assay; improvement over sclerostin alone.: IC100 class, Wnt3a signaling in human embryonic cells in presence of sclerostin
# T1 construct: host or cells: human embryonic cells (reporter cells)
# T1 sequence (Q9BQB4 24-213): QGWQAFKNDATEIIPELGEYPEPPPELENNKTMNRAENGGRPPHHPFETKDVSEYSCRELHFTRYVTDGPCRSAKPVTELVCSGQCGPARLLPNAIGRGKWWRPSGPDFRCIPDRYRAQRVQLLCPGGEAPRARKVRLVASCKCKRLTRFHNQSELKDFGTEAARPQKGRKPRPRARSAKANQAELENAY
# [2] = IC100 class, OCN secreted from MC3T3 osteoblast cells treated with sclerostin
# [3] = IC100 class, MC3T3 osteoblast cells treated with sclerostin
# [4] = MC3T3 osteoblast cells, result in words
Sclerostin Inhibition Assay; improvement over sclerostin alone. (sclerostin),"effect on Wnt3a signaling (sclerostin; human embryonic cells, result in words)",Molecule,IC100 (MC3T3 osteoblast cells; [2]),"IC100 [1, 3]",OSTEOCALCIN (Bone Formation Marker) (MC3T3 osteoblast cells; [2]),effect on OCN secretion (MC3T3 osteoblast cells; [4]),"Sclerostin Inhibition of Mineralization; improvement over sclerostin alone. [1, 3]","effect on mineralization [1, 4]"
++ (++ indicates an IC100 < 10 μM),,"COc1ccc2c3ccnc(C(F)(F)F)c3n(CCN3CCN(C(=O)OC(C)(C)C)CC3)c2c1 [Example 24, t-butyl 4-(2-(7-methoxy-1-(trifluoromethyl)-9H-pyrido[3,4-b]indol-9-yl)ethyl)piperazine-1-carboxylate]",< 10 µM,< 10 µM,,,,
++ (++ indicates an IC100 < 10 μM),,"Oc1ccc2c3ccnc(C(F)(F)F)c3n(CCN3CCOCC3)c2c1 [Example 26, 9-(2-morpholinoethyl)-1-(trifluoromethyl)-9H-pyrido[3,4-b]indol-7-ol]",< 10 µM,< 10 µM,,,,
++ (++ indicates an IC100 < 10 μM),,"COc1ccc2c3ccnc(C(F)(F)F)c3n(CC(C)N3CCOCC3)c2c1 (stereo not drawn) [Example 28, 4-(1-(7-methoxy-1-(trifluoromethyl)-9H-pyrido[3,4-b]indol-9-yl)propan-2-yl)morpholine]",< 10 µM,< 10 µM,,,,
++ (++ indicates an IC100 < 10 μM),,"COc1ccc2c3ccnc(C(F)(F)F)c3n(CCN3CCOCC3C)c2c1 (stereo not drawn) [Example 29, 4-(2-(7-methoxy-1-(trifluoromethyl)-9H-pyrido[3,4-b]indol-9-yl)ethyl)-3-methylmorpholine]",< 10 µM,< 10 µM,,,,
++ (++ indicates an IC100 < 10 μM),,"CC1COCCN1CCn1c2cc(O)ccc2c2ccnc(C(F)(F)F)c21 (stereo not drawn) [Example 30, 9-(2-(3-methylmorpholino)ethyl)-1-(trifluoromethyl)-9H-pyrido[3,4-b] indol-7-ol]",< 10 µM,< 10 µM,,,,
++ (++ indicates an IC100 < 10 μM),,"CC1CN(CCn2c3cc(O)ccc3c3ccnc(C(F)(F)F)c32)CC(C)O1 (stereo not drawn) [Example 31, 9-(2-(2,6-dimethylmorpholino)ethyl)-1-(trifluoromethyl)-9H-pyrido[3,4-b]indol-7-ol]",< 10 µM,< 10 µM,,,,
++ (++ indicates an IC100 < 10 μM),,"COc1ccc2c3ccnc(C(F)(F)F)c3n(CCN3CCCCC3)c2c1 [Example 33, 7-methoxy-9-(2-(piperidin-1-yl)ethyl)-1-(trifluoromethyl)-9H-pyrido[3,4-b]indole]",< 10 µM,< 10 µM,,,,
++ (++ indicates an IC100 < 10 μM),,"COc1ccc2c3ccnc(C(F)(F)F)c3n(CCNCCO)c2c1 [Example 34, 2-((2-(7-methoxy-1-(trifluoromethyl)-9H-pyrido[3,4-b]indol-9-yl)ethyl)amino)ethanol]",< 10 µM,< 10 µM,,,,
+ (+ indicates an IC100 > 10 μM),,"OCCN(CCO)CCn1c2cc(O)ccc2c2ccnc(C(F)(F)F)c21 [Example 36, 2,2′-((2-(7-hydroxy-1-(trifluoromethyl)-9H-pyrido[3,4-b]indol-9-yl)ethyl)azanediyl)diethanol]",> 10 µM,> 10 µM,,,,
++ (++ indicates an IC100 < 10 μM),,"COc1ccc2c(c1)[nH]c1c(C)nc(F)cc12 [Example 38, 3-fluoro-7-methoxy-1-methyl-9H-pyrido[3,4-b]indole]",< 10 µM,< 10 µM,,,,
++ (++ indicates an IC100 < 10 μM),,"COc1ccc2c3cc(F)nc(C)c3n(CCN3CCCCC3)c2c1 [Example 39, 3-fluoro-7-methoxy-1-methyl-9-(2-(piperidin-1-yl)ethyl)-9H-pyrido[3,4-b]indole]",< 10 µM,< 10 µM,,,,
+ (+ indicates an IC100 > 10 μM),,"COc1ccc2c(c1)[nH]c1c(C)cncc12 [Example 41, 7-methoxy-4-methyl-5H-pyrido[4,3-b]indole]",> 10 µM,> 10 µM,,,,
−,antagonized Wnt3a signaling,sclerostin protein: SOST (Sclerostin) protein; antagonizes Wnt3a signaling and inhibits mineralization and OCN secretion in the assays,,,−,nearly complete loss of OCN secretion,−,significant decrease in mineralization

# The remaining lines, values behind:
Molecule,Sclerostin Inhibition Assay; improvement over sclerostin alone. (sclerostin),"effect on Wnt3a signaling (sclerostin; human embryonic cells, result in words)",IC100 (MC3T3 osteoblast cells; [2]),"IC100 [1, 3]",OSTEOCALCIN (Bone Formation Marker) (MC3T3 osteoblast cells; [2]),effect on OCN secretion (MC3T3 osteoblast cells; [4]),"Sclerostin Inhibition of Mineralization; improvement over sclerostin alone. [1, 3]","effect on mineralization [1, 4]"
"CC(Cn1c2ccccc2c2ccccc21)N(C)C (stereo not drawn) [Example 2, 1-(9H-carbazol-9-yl)-N,N-dimethylpropan-2-amine]",+ (+ indicates an IC100 > 10 μM),,> 10 µM,> 10 µM,,,,
"COc1ccc2c3ccnc(C)c3n(C(C)CN(C)C)c2c1 (stereo not drawn) [Example 5, 2-(7-methoxy-1-methyl-9H-pyrido[3,4-b]indol-9-yl)-N,N-dimethylpropan-1-amine]",++ (++ indicates an IC100 < 10 μM),,< 10 µM,< 10 µM,,,,
"CCN(CC)CCCn1c2cc(OC)ccc2c2ccnc(C)c21 [Example 6, N,N-diethyl-3-(7-methoxy-1-methyl-9H-pyrido[3,4-b]indol-9-yl)propan-1-amine]",++ (++ indicates an IC100 < 10 μM),,< 10 µM,< 10 µM,,,,
"COc1ccc2c3ccnc(C)c3n(CCN(C)C)c2c1 [Example 7, 2-(7-methoxy-1-methyl-9H-pyrido[3,4-b]indol-9-yl)-N,N-dimethyl ethanamine]",++ (++ indicates an IC100 < 10 μM),,< 10 µM,< 10 µM,,,,
"COc1ccc2c3ccnc(C)c3n(CCN3CCN(C(=O)OC(C)(C)C)CC3)c2c1 [Example 14, t-butyl 4-(2-(7-methoxy-1-methyl-9H-pyrido[3,4-b]indol-9-yl)ethyl) piperazine-1-carboxylate]",++ (++ indicates an IC100 < 10 μM),,< 10 µM,< 10 µM,,,,
"COc1ccc2c3ccnc(C)c3n(CCN3CCNCC3)c2c1 [Example 16, 7-methoxy-1-methyl-9-(2-(piperazin-1-yl)ethyl)-9H-pyrido[3,4-b]indole]",++ (++ indicates an IC100 < 10 μM),,< 10 µM,< 10 µM,,,,
"COc1ccc2c(c1)[nH]c1c(C)nc(O)cc12 [Example 19, 7-methoxy-1-methyl-9H-pyrido[3,4-b]indol-3-ol]",++ (++ indicates an IC100 < 10 μM),,< 10 µM,< 10 µM,,,,
"Cc1nc(O)cc2c1[nH]c1cc(O)ccc12 [Example 20, 1-methyl-9H-pyrido[3,4-b]indole-3,7-diol]",+ (+ indicates an IC100 > 10 μM),,> 10 µM,> 10 µM,,,,
"Oc1ccc2c(c1)[nH]c1c(C(F)(F)F)nccc12 [Example 23, 1-(trifluoromethyl)-9H-pyrido[3,4-b]indol-7-ol]",++ (++ indicates an IC100 < 10 μM),,< 10 µM,< 10 µM,,,,
"Cc1nccc2c1[nH]c1cc(OC3CC3)ccc12 [Example 42, 7-cyclopropoxy-1-methyl-9H-pyrido[3,4-b]indole]",+ (+ indicates an IC100 > 10 μM),,> 10 µM,> 10 µM,,,,
"Cc1nccc2c1[nH]c1cc(OC(C)(F)F)ccc12 [Example 43, 7-(1,1-difluoroethoxy)-1-methyl-9H-pyrido[3,4-b]indole]",++ (++ indicates an IC100 < 10 μM),,< 10 µM,< 10 µM,,,,
"Cc1nccc2c1[nH]c1cc(Cl)ccc12 [Example 44, 7-chloro-1-methyl-9H-pyrido[3,4-b]indole]",++ (++ indicates an IC100 < 10 μM),,< 10 µM,< 10 µM,,,,
"Cc1nccc2c1[nH]c1cc(OC(F)F)ccc12 [Example 45, 7-(difluoromethoxy)-1-methyl-9H-pyrido[3,4-b]indole]",++ (++ indicates an IC100 < 10 μM),,< 10 µM,< 10 µM,,,,
"Cc1nccc2c1[nH]c1cc(OCC3CC3)ccc12 [Example 46, 7-(cyclopropylmethoxy)-1-methyl-9H-pyrido[3,4-b]indole]",++ (++ indicates an IC100 < 10 μM),,< 10 µM,< 10 µM,,,,
